As usually defined, the Kd is the equilibrium constant for the complex coming apart.

Some targets named below: BRD3(2) (Homo sapiens, UniProt Q15059); BRDT(2) (Homo sapiens, UniProt Q58F21); WDR9(2) (Homo sapiens, UniProt Q9NSI6); BRD3(1,2) (Homo sapiens, UniProt Q15059); BRD4(1,2) (Homo sapiens, UniProt O60885); BRD8(1) (Homo sapiens, UniProt Q9H0E9); BRD8(2) (Homo sapiens, UniProt Q9H0E9); PBRM1(5) (Homo sapiens, UniProt Q86U86).
What all share (assay): BROMOscan ligand-binding assay
For another experiment, the target named is T1, ATAD2A (Homo sapiens, UniProt Q6PL18).
T1 sequence (Q6PL18 980-1092 limits assumed): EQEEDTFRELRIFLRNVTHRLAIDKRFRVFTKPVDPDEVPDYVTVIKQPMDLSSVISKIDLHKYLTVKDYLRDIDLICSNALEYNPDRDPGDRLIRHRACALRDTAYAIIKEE

The target in the next experiment is T2, BAZ2A (Homo sapiens, UniProt Q9UIF9).
T2 sequence (Q9UIF9 1793-1897 limits assumed): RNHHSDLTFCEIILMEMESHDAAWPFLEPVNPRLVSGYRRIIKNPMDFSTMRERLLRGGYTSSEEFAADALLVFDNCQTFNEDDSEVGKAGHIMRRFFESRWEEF

For the next experiment, the target named is T3, BAZ2B (Homo sapiens, UniProt Q9UIF8).
T3 sequence (Q9UIF8 2060-2164 limits assumed): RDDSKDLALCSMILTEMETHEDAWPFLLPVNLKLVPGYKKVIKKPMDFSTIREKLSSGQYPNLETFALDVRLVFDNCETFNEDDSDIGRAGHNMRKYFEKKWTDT

The target in a further experiment is T4, BRD1 (Homo sapiens, UniProt O95696).
T4 sequence (O95696 562-666 limits assumed): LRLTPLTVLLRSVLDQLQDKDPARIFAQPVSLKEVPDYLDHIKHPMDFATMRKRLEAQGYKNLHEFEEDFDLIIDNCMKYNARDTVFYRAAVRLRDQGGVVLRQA

In the next experiment the target is T5, BRD9 (Homo sapiens, UniProt Q9H8M2).
T5 sequence (Q9H8M2 136-240 limits assumed): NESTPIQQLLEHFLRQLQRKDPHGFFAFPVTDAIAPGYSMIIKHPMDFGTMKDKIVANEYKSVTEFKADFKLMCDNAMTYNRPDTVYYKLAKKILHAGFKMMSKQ

The next experiment addresses T6, BRPF1 (Homo sapiens, UniProt P55201).
T6 sequence (P55201 628-732 limits assumed): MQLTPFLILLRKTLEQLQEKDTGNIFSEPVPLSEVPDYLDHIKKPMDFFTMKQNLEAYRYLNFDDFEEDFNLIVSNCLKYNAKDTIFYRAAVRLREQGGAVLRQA

[1] abbreviates: read-out: KD (BROMOscan), sheet prints no unit (nM).
The mark [2] stands for this setting: KD (BROMOscan), sheet prints no unit (nM).

The structures appear in SMILES notation. Where two headings read alike, the source gives them in different places.

PBRM1(5), sequence (Q86U86 653-763 limits assumed): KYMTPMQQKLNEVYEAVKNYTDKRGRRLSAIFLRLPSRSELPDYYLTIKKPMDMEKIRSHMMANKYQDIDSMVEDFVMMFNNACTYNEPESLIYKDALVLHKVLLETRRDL
BRD3(2), sequence (Q15059 306-415 limits assumed): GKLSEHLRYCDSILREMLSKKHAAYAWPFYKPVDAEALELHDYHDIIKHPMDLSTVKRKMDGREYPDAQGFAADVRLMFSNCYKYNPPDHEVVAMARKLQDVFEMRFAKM
WDR9(2), sequence (Q9NSI6 1313-1418 limits assumed): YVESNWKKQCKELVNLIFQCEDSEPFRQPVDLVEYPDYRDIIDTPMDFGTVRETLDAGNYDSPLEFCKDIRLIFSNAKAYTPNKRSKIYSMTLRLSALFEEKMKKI
BRD8(1), sequence (Q9H0E9 706-811 limits assumed): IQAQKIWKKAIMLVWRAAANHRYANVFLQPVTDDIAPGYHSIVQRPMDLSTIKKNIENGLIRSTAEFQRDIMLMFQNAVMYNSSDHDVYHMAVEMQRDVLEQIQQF
BRD8(2), sequence (Q9H0E9 1099-1207 limits assumed): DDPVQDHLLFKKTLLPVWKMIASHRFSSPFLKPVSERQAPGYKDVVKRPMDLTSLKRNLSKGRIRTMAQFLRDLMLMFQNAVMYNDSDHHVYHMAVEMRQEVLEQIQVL
BRD3(1,2), sequence (Q15059 24-416 limits assumed): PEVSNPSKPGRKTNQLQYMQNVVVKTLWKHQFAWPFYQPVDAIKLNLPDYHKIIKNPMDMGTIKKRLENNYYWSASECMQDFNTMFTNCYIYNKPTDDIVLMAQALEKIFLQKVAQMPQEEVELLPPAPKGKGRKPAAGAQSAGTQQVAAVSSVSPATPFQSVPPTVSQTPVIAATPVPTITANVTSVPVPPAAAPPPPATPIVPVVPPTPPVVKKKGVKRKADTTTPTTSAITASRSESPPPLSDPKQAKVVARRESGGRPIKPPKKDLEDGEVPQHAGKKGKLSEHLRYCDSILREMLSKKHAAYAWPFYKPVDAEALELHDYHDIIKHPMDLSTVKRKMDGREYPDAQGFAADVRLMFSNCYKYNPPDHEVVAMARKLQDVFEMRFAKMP
Excerpt for ATAD2A: (§1) BROMOscan is a binding assay based on the well-known KINOMEscan technology. This assay measures the binding of a DNA-tagged bromodomain to an immobilized BRD ligand. If an inhibitor is present, it will compete with the bromodomain binding to the immobilized ligand, resulting in reduction of a quantitative PCR (qPCR) signal in a dose-dependent manner.
Excerpt for BAZ2A: as §1
Excerpt for BAZ2B: as §1
Excerpt for BRD1: as §1
Excerpt for BRD3(1,2): as §1
Excerpt for BRD3(2): as §1
Excerpt for BRD4(1,2): as §1
Excerpt for BRD8(1): as §1
Excerpt for BRD8(2): as §1
Excerpt for BRD9: as §1
Excerpt for BRDT(2): as §1
Excerpt for BRPF1: as §1
Excerpt for PBRM1(5): as §1
Excerpt for WDR9(2): as §1

Consider `Cc1noc(C)c1-c1ccc2c(c1)nc(CCc1ccccc1)n2CCN1CCOCC1` [CBP30-298], for which the Kd at ATAD2A (BROMOscan Gene Symbol ATAD2A) was more than 150000 nM; at ATAD2A (setting [1]), more than 30000 nM; at BAZ2A (BROMOscan Gene Symbol BAZ2A) it was 55 µM; at BAZ2B (BROMOscan Gene Symbol BAZ2B), more than 50000 nM; on BAZ2B (setting [1]), more than 30000 nM; at BRD1 (BROMOscan Gene Symbol BRD1), 46 µM. In addition, the dissociation constant Kd worked out at 1.6 µM on BRD3(2) (BROMOscan Gene Symbol BRD3(2)); 12 µM at BRD9 (BROMOscan Gene Symbol BRD9); 6.8 µM on BRDT(2) (BROMOscan Gene Symbol BRDT(2)); 18 µM on BRPF1 (BROMOscan Gene Symbol BRPF1); 30000 nM on WDR9(2) (BROMOscan Gene Symbol WDR9(2)).
Take `CCCOc1ccn2c(C(C)=O)cc(-c3ccccc3S(C)(=O)=O)c2c1` [GSK2801]: the dissociation constant Kd was more than 30000 nM on ATAD2A (setting [2]); more than 100000 nM on ATAD2A (KD, BROMOscan Gene Symbol ATAD2A); 60 µM at BRD1; 17 µM on BRD3(1,2) (KD, BROMOscan Gene Symbol BRD3(1,2)); 13 µM at BRD3(2) (KD, BROMOscan Gene Symbol BRD3(2)); 65 µM at BRD4(1,2). In addition, the Kd at BRD8(1) (setting [2]) is more than 30000 nM; at BRD8(1) (KD, BROMOscan Gene Symbol BRD8(1)) it was more than 100000 nM; at BRD8(2) (setting [2]), more than 30000 nM; on BRD8(2) (KD, BROMOscan Gene Symbol BRD8(2)) it was more than 100000 nM; at BRD9 (KD, BROMOscan Gene Symbol BRD9) it was 0.12 µM; at BRDT(2) (KD, BROMOscan Gene Symbol BRDT(2)) it was 67 µM. Moreover, the Kd at BRPF1 (KD, BROMOscan Gene Symbol BRPF1) was 14 µM; at PBRM1(5) (setting [2]), more than 30000 nM; on PBRM1(5) (KD, BROMOscan Gene Symbol PBRM1(5)), more than 100000 nM; on WDR9(2) (setting [2]), more than 30000 nM; on WDR9(2) (KD, BROMOscan Gene Symbol WDR9(2)) it was more than 100000 nM.
On to `Cc1cc(=O)n(C)c2cc(N3C(=O)CC[C@H](NS(=O)(=O)CC(C)C)[C@H]3c3ccc(Cl)cc3)ccc12` [LP-99], for which the Kd at ATAD2A (ATAD2A) was more than 50000 nM; on BAZ2A (BAZ2A) it was more than 50 µM; on BAZ2B (BAZ2B), more than 50000 nM; on BRD1 (BRD1), 22 µM; at BRD3(1,2) (BROMOscan, BRD3(1,2)), 47 µM; at BRD3(2) (BROMOscan, BRD3(2)) it was more than 50 µM. In addition, the Kd on BRD4(1,2) (BROMOscan, BRD4(1,2)) was 41 µM; on BRD8(1) (BROMOscan, BRD8(1)), more than 50000 nM; at BRD8(2) (BROMOscan, BRD8(2)), more than 50000 nM; at BRDT(2) (BROMOscan, BRDT(2)), 33 µM; at BRPF1 (BROMOscan, BRPF1) it was 43 µM; on PBRM1(5) (BROMOscan, PBRM1(5)), more than 50000 nM. In addition, the Kd at WDR9(2) (BROMOscan, WDR9(2)) is more than 50000 nM.
On to `COc1cc(C#N)ccc1S(=O)(=O)Nc1ccc2c(c1)cc(C)c(=O)n2C` [NI 57], for which the Kd on ATAD2A (ATAD2A) is more than 50000 nM; on BAZ2A (BAZ2A) it was more than 50 µM; on BAZ2B (BAZ2B), 9400 nM; at BRD1 (BRD1) it was 0.046 µM; on BRD3(1,2) (BRD3(1,2)), 12 µM; on BRD3(2) (BRD3(2)) it was more than 50 µM. The dissociation constant Kd on BRD4(1,2) (BRD4(1,2)) is 15 µM; at BRD8(1) (BRD8(1)), more than 50000 nM; on BRD8(2) (BRD8(2)), more than 50000 nM; on BRD9 (BRD9), 0.16 µM; on BRDT(2) (BRDT(2)), more than 50 µM; at BRPF1 (BRPF1) it was 0.004 µM. The dissociation constant Kd at PBRM1(5) (PBRM1(5)) was 11000 nM; on WDR9(2) (WDR9(2)) it was more than 50000 nM.
With `CCCS(=O)(=O)c1nc(NC2CC2)cc(-c2ccc3c(ccn3C3CC(C)(C)NC(C)(C)C3)c2)n1` [NVS-CECR2-1], the equilibrium dissociation constant (Kd) on ATAD2A is more than 30000 nM; at BAZ2A, more than 30 µM; at BAZ2B, more than 30000 nM; at BRD1, more than 30 µM; at BRD3(1,2), more than 30 µM; at BRD3(2) it was more than 30 µM. In addition, the Kd on BRD4(1,2) is 12 µM; at BRD8(1), more than 30000 nM; on BRD8(2), more than 30000 nM; at BRD9, 2.1 µM; at BRDT(2) it was more than 30 µM; on BRPF1, 3.5 µM. Also, the Kd at PBRM1(5) was more than 30000 nM; at WDR9(2), 30000 nM.

For the origin of these results see paper PMC6478789, “A chemical toolbox for the study of bromodomains and epigenetic signaling” (Nature Communications, 2019).
